As a reminder, the IC50 is the concentration needed to halve the response being measured. Broadly, the inhibition is how much of the control response was suppressed.

This is an account of results in patent US5624923A, “Tricyclic diazepine vasopressin antagonists and oxytocin antagonists” (priority 1995, dated 1997).

The target in test [1] is T1, Rat Kidney Medullary V2 Receptors (Rattus norvegicus, UniProt Q00788).
T1 construct: Medullary tissues from rat kidneys are dissected out; from tissue; host or cells: rat kidney medulla membranes
In words: Binding Assay to Rat Kidney Medullary V2 Receptors. Particulars: rat kidney medulla membranes; read-out: V2 IC50. The procedure, abridged: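 Membranes were prepared from rat kidney medulla and stored in 50.0 mM Tris-HCl pH 7.4 with 0.2% BSA and 0.1 mM PMSF. Radioligand competition ran 120 min at bench temperature, with 1.0 μM unlabeled ligand defining nonspecific binding. Compounds were added in 50% DMSO; filtration, tritium scintillation counting, IC50 from competition analysis.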

Test [2] addresses T2, oxytocin receptors (Rattus norvegicus, UniProt P70536).
T2 construct: The uteri are dissected out, cleaned of fat and connective tissues; from tissue; host or cells: uterus of DES-treated female Sprague-Dawley rats
T2 sequence (P70536 1-388): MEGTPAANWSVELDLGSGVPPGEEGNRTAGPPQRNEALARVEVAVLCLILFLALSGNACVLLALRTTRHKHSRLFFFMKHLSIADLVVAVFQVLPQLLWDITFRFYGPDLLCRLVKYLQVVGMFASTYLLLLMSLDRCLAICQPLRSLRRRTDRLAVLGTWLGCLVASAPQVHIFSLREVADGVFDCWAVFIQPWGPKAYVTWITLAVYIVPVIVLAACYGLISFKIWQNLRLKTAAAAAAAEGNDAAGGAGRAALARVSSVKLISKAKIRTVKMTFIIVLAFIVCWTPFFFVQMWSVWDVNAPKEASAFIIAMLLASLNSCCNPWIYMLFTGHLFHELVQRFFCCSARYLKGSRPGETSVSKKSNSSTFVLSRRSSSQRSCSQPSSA
In words: Oxytocin Receptor Binding. The following applies: for IC50: 1.0 nM [3H]oxytocin; for inhibition at 10 µM / inhibition at 1.25 µM: [3H]oxytocin. An outline of the steps:
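Membranes from uteri of DES-primed (0.3 mg/kg i.m., 18 h) female Sprague-Dawley rats. Competition with 1.0 nM [3H]oxytocin in 50 mM Tris.HCl pH 7.4, 5 mM MgCl2 with protease inhibitors, 60 min at 22 °C, filtration read-out. Non-specific binding with 1.0 uM unlabeled OT; IC50 calculated.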

Test [3] concerns Vasopressin V2. In words: Vasopressin V2 Antagonist Activity in Conscious Hydrated Rats. The test is classed as in vivo, rat. Particulars: 10 mg/kg orally, AVP 0.4 μg/kg i.p. The procedure, abridged:
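Four-hour urine output, osmolality and electrolytes (Na+, K+, Cl−) recorded in water-loaded rats (30 mL/kg deionized water orally) given AVP i.p. at 0.4 μg/kg. Test compounds were given orally at 0.1–100 mg/kg 1 h before AVP; 2–4 rats per compound.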

T1 sequence (Q00788 whole entry): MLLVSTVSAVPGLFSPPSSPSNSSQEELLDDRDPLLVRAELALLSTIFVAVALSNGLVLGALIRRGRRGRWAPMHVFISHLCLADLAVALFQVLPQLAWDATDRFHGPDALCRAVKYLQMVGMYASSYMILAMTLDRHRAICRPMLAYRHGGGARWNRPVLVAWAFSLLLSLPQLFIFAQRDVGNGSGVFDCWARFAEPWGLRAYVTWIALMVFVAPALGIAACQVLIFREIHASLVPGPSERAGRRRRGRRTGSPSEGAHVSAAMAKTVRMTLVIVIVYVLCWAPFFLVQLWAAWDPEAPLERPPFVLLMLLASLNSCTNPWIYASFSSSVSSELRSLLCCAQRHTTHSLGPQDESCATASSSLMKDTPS

On to `CSc1ccccc1C(=O)Nc1ccc(C(=O)N2Cc3cccn3Cc3ccccc32)cc1` [Example 85, N-[4-(5H-Pyrrolo[2,1-c][1,4]benzodiazepin-10(11H)-ylcarbonyl)phenyl]-2-(methylthio)benzamide], for which the half-maximal inhibitory concentration (IC50) in test [1] amounted to 13 nM. In test [2], this molecule gave an IC50 of 460 nM and an inhibition at 10 µM of 98%.
With `Cc1ccccc1CC(=O)Nc1ccc(C(=O)N2Cc3cccn3Cc3ccccc32)cc1` [Example 93, N-[4(5H-Pyrrolo[2,1-c][1,4]benzodiazepin-10(11H)-ylcarbonyl)phenyl]-2-methylbenzeneacetamide], the IC50 in test [1] stood at 0.7 nM. Further, in test [2], the IC50 came out at 60 nM and the inhibition at 10 µM amounted to 87%.
As for `O=C(Nc1ccc(C(=O)N2Cc3cccn3Cc3sccc32)cc1)c1ccc(Cl)cc1Cl` [Example 274, N-(4-(5H-pyrrolo[1,2-a]thieno-[3,2-e][1,4]diazepin-4(10H)-ylcarbonyl)phenyl]-2,4-dichloro-benzamide], in test [2], the IC50 turned out to be 1000 nM and the inhibition at 10 µM is 95%. In test [3], the Osmolality is listed as 1177 mOsm/kg and the “Urine Volume” value came out at 3 ml/4 hrs.
In test [2], `COc1cc(C(=O)N2Cc3cccn3Cc3ccccc32)ccc1NC(=O)c1ccccc1C` [Example 477, N-[4-(5H-pyrrolo[2,1-c][1,4]benzodiazepin-10(11H)-ylcarbonyl)-2-methoxy-phenyl]-2-methylbenzamide] yielded a half-inhibitory concentration (IC50) of 29 nM and an inhibition at 1.25 µM of 97%. In addition, in test [3], the Osmolality stood at 701 mOsm/kg and the “Urine Volume” value is reported as 5.3 ml/4 hrs.
In test [2], `COc1cc(C(=O)N2Cc3cccn3Cc3ccccc32)ccc1NC(=O)c1ccc(Cl)cc1Cl` [Example 478, N-[4-(5H-pyrrolo[2,1-c][1,4]benzodiazepin-10(11H)-ylcarbonyl)-2-methoxy-phenyl]-2,4-dichlorobenzamide] came in with an IC50 of 40 nM and an inhibition at 1.25 µM of 97%. For the same molecule, in test [3], the Osmolality is 1399 mOsm/kg and the “Urine Volume” value worked out at 3 ml/4 hrs.
Regarding `O=C(Nc1ccc(C(=O)N2Cc3cccn3Cc3ccccc32)cc1)c1cc([N+](=O)[O-])ccc1Cl` [Example 480, N-[4-(5H-pyrrolo[2,1-c][1,4]benzodiazepin-10(11H)-ylcarbonyl)phenyl]-2-chloro-5-nitrobenzamide], in test [2], the IC50 was found to be 150 nM and the inhibition at 10 µM worked out at 98%. Further, in test [3], the Osmolality came to 827 mOsm/kg and the “Urine Volume” value was 8.8 ml/4 hrs.
The corresponding values for `Cc1cccc(C(=O)Nc2ccc(C(=O)N3Cc4cccn4Cc4ccccc43)c(Cl)c2)c1C` [Example 525, N-[4-(5H-pyrrolo[2,1-c][1,4]benzodiazepin-10(11H)-ylcarbonyl]-3-chlorophenyl]-2,3-dimethylbenzamide] are 280 nM, 98%, 557 mOsm/kg and 13 ml/4 hrs.
In test [2], `O=C(Nc1ccc(C(=O)N2Cc3cccn3Cc3ccccc32)c(Cl)c1)c1ccc(F)cc1Cl` [Example 527, N-[4-(5H-pyrrolo[2,1-c][1,4]benzodiazepin-10(11H)-ylcarbonyl]-3-chlorophenyl]-4-fluoro-2-chlorobenzamide] came in with an IC50 of 450 nM and an inhibition at 10 µM of 92%. Also, in test [3], the Osmolality is recorded as 430 mOsm/kg and the “Urine Volume” value was determined as 19.5 ml/4 hrs.
For `O=C(Nc1ccc(C(=O)N2Cc3cccn3Cc3ccccc32)c(Cl)c1)c1ccccc1C(F)(F)F` [Example 528, N-[4-(5H-pyrrolo[2,1-c][1,4]benzodiazepin-10(11H)-ylcarbonyl]-3-chlorophenyl]-2-(trifluoromethyl)benzamide], in that order: 1170 nM, 90%, 647 mOsm/kg and 11.3 ml/4 hrs.
